# Assay results: ChEMBL document CHEMBL5370646, “Synthesis and Conformational Analysis of FR901464-Based RNA Splicing Modulators and Their Synergism in Drug-Resistant Cancers” (J Med Chem, 2023)
# Key:
# DMS-114 [1] = assay: Synergistic antiproliferative activity against human DMS-114 cells assessed as combination index at 2 nM incubated for 72 hrs in presence of 4.8 uM venetoclax by WST-1 assay; assay type: functional
# DMS-53 [2] = assay: Synergistic antiproliferative activity against human DMS-53 cells assessed as combination index at 0.5 nM incubated for 72 hrs in presence of […] venetoclax by WST-1 assay; assay type: functional
# DMS-53 [3] = assay: Synergistic antiproliferative activity against human DMS-53 cells assessed as combination index at 1.5 nM incubated for 72 hrs in presence of […] venetoclax by WST-1 assay; assay type: functional
# DMS-53 [4] = assay: Synergistic antiproliferative activity against human DMS-53 cells assessed as combination index at 1.5 nM incubated for 72 hrs in presence of […] venetoclax by WST-1 assay; assay type: functional
# DMS-53 [5] = assay: Synergistic antiproliferative activity against human DMS-53 cells assessed as combination index at 0.5 nM incubated for 72 hrs in presence of […] venetoclax by WST-1 assay; assay type: functional
# DMS-114 [6] = assay: Synergistic antiproliferative activity against human DMS-114 cells assessed as combination index at 1 nM incubated for 72 hrs in presence of 3.6 uM venetoclax by WST-1 assay; assay type: functional
# [7] = Synergistic antiproliferative activity against human Osimertinib-resistant HCC827AR cell assessed as combination index at 2.5 nM incubated for 72 hrs in presence of 4 uM osimertinib by WST-1 assay; assay type: functional
# [8] = Synergistic antiproliferative activity against human Osimertinib-resistant HCC827AR cell assessed as combination index at 2.5 nM incubated for 72 hrs in presence of 0.50 uM osimertinib by WST-1 assay; assay type: functional
# DMS-53 [9] = assay: Synergistic antiproliferative activity against human DMS-53 cells assessed as combination index at 2 nM incubated for 72 hrs in presence of […] venetoclax by WST-1 assay; assay type: functional
# [10] = Synergistic antiproliferative activity against human Osimertinib-resistant HCC827AR cell assessed as combination index at 1 nM incubated for 72 hrs in presence of 4 uM osimertinib by WST-1 assay; assay type: functional
# [11] = Synergistic antiproliferative activity against human Osimertinib-resistant HCC827AR cell assessed as combination index at 2 nM incubated for 72 hrs in presence of 0.50 uM osimertinib by WST-1 assay; assay type: functional
# DMS-53 [12] = assay: Synergistic antiproliferative activity against human DMS-53 cells assessed as combination index at 1 nM incubated for 72 hrs in presence of […] venetoclax by WST-1 assay; assay type: functional
# A549 = assay: Growth inhibition of human A549 cells assessed as reduction in cell viability incubated for 72 hrs; assay type: functional
# [13] = Synergistic antiproliferative activity against human Osimertinib-resistant HCC827AR cell assessed as combination index at 2 nM incubated for 72 hrs in presence of 4 uM osimertinib by WST-1 assay; assay type: functional
# DMS-114 [14] = assay: Synergistic antiproliferative activity against human DMS-114 cells assessed as combination index at 1 nM incubated for 72 hrs in presence of 2.4 uM venetoclax by WST-1 assay; assay type: functional
# HCT-116 [15] = assay: Modulation of RNA splicing in human HCT-116 cells assessed as decrease in MCL-1L expression by Western blot analysis; assay type: functional, cell-based; conditions: dose 3-100 nM
# DMS-114 [16] = assay: Synergistic antiproliferative activity against human DMS-114 cells assessed as combination index at 1 nM incubated for 72 hrs in presence of 6 uM venetoclax by WST-1 assay; assay type: functional
# SW48 = assay: Growth inhibition of human SW48 cells assessed as reduction in cell viability incubated for 72 hrs; assay type: functional
# DMS-53 [17] = assay: Synergistic antiproliferative activity against human DMS-53 cells assessed as combination index at 0.5 nM incubated for 72 hrs in presence of 50 uM venetoclax by WST-1 assay; assay type: functional
# DMS-53 [18] = assay: Synergistic antiproliferative activity against human DMS-53 cells assessed as combination index at 1.5 nM incubated for 72 hrs in presence of 50 uM venetoclax by WST-1 assay; assay type: functional
# DMS-114 [19] = assay: Synergistic antiproliferative activity against human DMS-114 cells assessed as combination index at 1 nM incubated for 72 hrs in presence of 4.8 uM venetoclax by WST-1 assay; assay type: functional
# [20] = Synergistic antiproliferative activity against human Osimertinib-resistant HCC827AR cell assessed as combination index at 1 nM incubated for 72 hrs in presence of 0.50 uM osimertinib by WST-1 assay; assay type: functional
# DMS-114 [21] = assay: Synergistic antiproliferative activity against human DMS-114 cells assessed as combination index at 3 nM incubated for 72 hrs in presence of 3.6 uM venetoclax by WST-1 assay; assay type: functional
# [22] = Synergistic antiproliferative activity against human Osimertinib-resistant HCC827AR cell assessed as combination index at 1.5 nM incubated for 72 hrs in presence of 0.25 uM osimertinib by WST-1 assay; assay type: functional
# DMS-53 [23] = assay: Synergistic antiproliferative activity against human DMS-53 cells assessed as combination index at 2 nM incubated for 72 hrs in presence of 25 […] by WST-1 assay; assay type: functional
# [24] = Growth inhibition of mouse FL83B cells assessed as reduction in cell viability incubated for 72 hrs; assay type: toxicity, cell-based
# HCT-116 [25] = assay: Modulation of RNA splicing in human HCT-116 cells assessed as decrease in MCL-1S expression by Western blot analysis; assay type: functional, cell-based; conditions: dose 3-100 nM
# DMS-53 [26] = assay: Synergistic antiproliferative activity against human DMS-53 cells assessed as combination index at 1.5 nM incubated for 72 hrs in presence of […] venetoclax by WST-1 assay; assay type: functional
# DMS-53 [27] = assay: Synergistic antiproliferative activity against human DMS-53 cells assessed as combination index at 2 nM incubated for 72 hrs in presence of 200 […] by WST-1 assay; assay type: functional
# DMS-53 [28] = assay: Synergistic antiproliferative activity against human DMS-53 cells assessed as combination index at 1 nM incubated for 72 hrs in presence of 25 uM venetoclax by WST-1 assay; assay type: functional
# [29] = Synergistic antiproliferative activity against human Osimertinib-resistant HCC827AR cell assessed as combination index at 1 nM incubated for 72 hrs in presence of 2 uM osimertinib by WST-1 assay; assay type: functional
smiles,measurement,setting,value
COCO[C@@H](C)/C=C\C(=O)N[C@@H]1C[C@H](C)[C@H](C/C=C(C)/C=C/[C@H]2OC(C)(C)C[C@@]3(CO3)[C@@H]2O)O[C@@H]1C,CI,DMS-114 [1],0.66
same,CI,DMS-53 [2],1.35
same,CI,DMS-53 [3],0.72
same,CI,DMS-53 [4],0.67
same,CI,DMS-53 [5],1.6
same,CI,DMS-114 [6],1.34
same,CI,[7],0.83
same,CI,[8],0.99
same,CI,DMS-53 [9],0.42
same,CI,[10],0.93
same,CI,[11],1.08
same,CI,DMS-53 [12],1.26
same,GI50,A549,3.9 nM
same,CI,[13],0.87
same,CI,DMS-114 [14],1.11
same,Activity,HCT-116 [15],Dose-Dependent Effect
same,CI,DMS-114 [16],1.46
same,GI50,SW48,2.5 nM
same,CI,DMS-53 [17],1.26
same,CI,DMS-53 [18],0.63
same,CI,DMS-114 [19],1.3
same,CI,[20],1.42
same,CI,DMS-114 [21],0.23
same,CI,[22],0.92
same,CI,DMS-53 [23],0.58
same,GI50 at 72 h,[24],5.7 nM
same,Activity,HCT-116 [25],Dose-Dependent Effect
same,CI,DMS-53 [26],0.51
same,CI,DMS-53 [27],0.4
same,CI,DMS-53 [28],1.04
same,CI,[29],1.37
